The experiment concerns the target T1, Vtc1/Vtc3/Vtc4 complex (VTC complex) (Saccharomyces cerevisiae, UniProt P47075+Q02725, P47075:K300A/P47075:R302A/P47075:K320A).
T1 construct: full-length subunits co-expressed in Expi293F; Vtc1 C-terminal HA, Vtc3 N-terminal 3xFlag, Vtc4 C-terminal 2xStrep; detergent-purified; 3:1:1 pentamer; with Vacuolar transporter chaperone complex subunit 1
T1 sequence (P47075 1-721 K300A/R302A/K320A): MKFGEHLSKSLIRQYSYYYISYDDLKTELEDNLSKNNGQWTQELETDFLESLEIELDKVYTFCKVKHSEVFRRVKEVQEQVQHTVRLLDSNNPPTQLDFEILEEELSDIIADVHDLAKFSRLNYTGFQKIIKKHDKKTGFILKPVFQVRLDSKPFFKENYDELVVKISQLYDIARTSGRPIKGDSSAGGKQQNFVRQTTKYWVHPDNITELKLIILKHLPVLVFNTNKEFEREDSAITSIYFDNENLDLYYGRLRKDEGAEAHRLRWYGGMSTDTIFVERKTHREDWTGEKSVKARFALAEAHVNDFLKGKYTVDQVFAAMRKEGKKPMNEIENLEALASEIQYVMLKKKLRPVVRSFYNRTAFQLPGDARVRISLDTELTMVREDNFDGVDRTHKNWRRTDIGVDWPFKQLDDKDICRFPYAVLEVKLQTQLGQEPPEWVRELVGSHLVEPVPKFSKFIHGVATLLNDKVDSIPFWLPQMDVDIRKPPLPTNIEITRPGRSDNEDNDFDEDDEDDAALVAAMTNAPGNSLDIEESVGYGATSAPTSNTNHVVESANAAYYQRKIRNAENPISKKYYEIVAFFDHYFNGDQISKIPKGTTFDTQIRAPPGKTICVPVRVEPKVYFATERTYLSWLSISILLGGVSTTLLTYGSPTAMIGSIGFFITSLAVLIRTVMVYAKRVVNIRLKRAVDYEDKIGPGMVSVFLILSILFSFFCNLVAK
T1 sequence (Q02725 1-835): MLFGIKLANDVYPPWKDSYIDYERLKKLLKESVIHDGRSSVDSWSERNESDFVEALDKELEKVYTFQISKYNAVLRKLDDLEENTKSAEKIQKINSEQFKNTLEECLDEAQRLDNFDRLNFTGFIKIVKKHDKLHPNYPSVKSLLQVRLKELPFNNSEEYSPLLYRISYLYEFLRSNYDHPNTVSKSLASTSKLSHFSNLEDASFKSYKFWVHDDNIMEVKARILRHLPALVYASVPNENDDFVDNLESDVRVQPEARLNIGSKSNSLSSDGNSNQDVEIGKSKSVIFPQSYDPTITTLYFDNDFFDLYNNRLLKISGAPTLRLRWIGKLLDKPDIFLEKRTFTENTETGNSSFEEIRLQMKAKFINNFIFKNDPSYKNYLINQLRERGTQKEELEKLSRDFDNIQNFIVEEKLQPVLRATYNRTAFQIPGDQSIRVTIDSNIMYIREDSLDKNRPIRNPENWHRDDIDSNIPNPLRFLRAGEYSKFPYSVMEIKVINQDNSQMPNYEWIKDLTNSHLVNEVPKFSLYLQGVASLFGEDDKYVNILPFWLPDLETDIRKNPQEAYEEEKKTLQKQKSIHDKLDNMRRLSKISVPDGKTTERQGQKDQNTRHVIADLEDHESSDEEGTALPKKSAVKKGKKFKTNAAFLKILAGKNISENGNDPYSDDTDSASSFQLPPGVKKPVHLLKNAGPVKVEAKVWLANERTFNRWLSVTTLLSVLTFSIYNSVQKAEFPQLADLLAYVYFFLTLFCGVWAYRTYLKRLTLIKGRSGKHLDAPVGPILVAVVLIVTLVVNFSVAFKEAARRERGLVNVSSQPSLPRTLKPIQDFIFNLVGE
T1 sequence (P40046 2-129 partner): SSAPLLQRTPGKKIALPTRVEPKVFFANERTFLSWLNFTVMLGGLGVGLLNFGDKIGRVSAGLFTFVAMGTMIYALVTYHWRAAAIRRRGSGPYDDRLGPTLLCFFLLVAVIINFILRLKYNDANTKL
The experiment in a line: polyP synthesis, TBE-PAGE. Format: biochemical. Conditions: activator; 15 mM ATP, 10 mM MgCl2, 1 mM MnCl2, 0.5 mM pyrophosphate, 27 °C; TTM cleft (second site) mutant.

In the case of `O=P(O)(O)O[C@H]1[C@H](OP(=O)(O)O)[C@@H](OP(=O)(O)O)[C@H](OP(=O)(O)O)[C@@H](OP(=O)(O)O)[C@H]1OP(=O)(O)O` [InsP6], the “polyP synthesis, TBE-PAGE” value was “had little impact on InsP6-stimulated polyP synthesis by VTC complex”.

For the origin of these results see article PMC9911596 (Nature Communications, 2023).
